From the NIST ThermoML archive (doi:10.1021/je060138i) come the findings set out here.

± gives the expanded uncertainty stated by the source.

For data set [1] the following is noted: for mass density: 293.15 K, 101.33 kPa, Liquid.
Data set [2] in a line: refractive index (Na D-line) (dimensionless). To be noted: 293.15 K; 101.33 kPa; Liquid; Standard Abbe refractometry.

On to `O=P1(O)OCC2(CO1)COP(=O)(O)OC2` (stereo unspecified), for which the Normal melting temperature in data set [1] (Crystal, visual observation) was found to be 310.50 ± 4.4 °C.
In the case of `CC(=O)O` [acetic acid], the mass density in data set [1] is on record as 1050 ± 1 kg/m3. The refractive index in data set [2] was found to be 1.3718 ± 0.0008.
Turning to `CC(C)=O` [acetone], the mass density in data set [1] is recorded as 790 ± 1 kg/m3. Moreover, the refractive index in data set [2] is listed as 1.359 ± 0.0007.
The corresponding values for `CC#N` [acetonitrile] are 783 ± 1 kg/m3 and 1.343 ± 0.0007.
For `ClCCl` [dichloromethane], the mass density in data set [1] was found to be 1321 ± 1 kg/m3. The refractive index in data set [2] is reported as 1.4237 ± 0.0007.
In the same order, the values of `CCOC(C)=O` [ethyl acetate] are 899 ± 1 kg/m3 and 1.3719 ± 0.0007.
